Data on one compound can be found in PMC3996367, “Profiling of drugs and environmental chemicals for functional impairment of neural crest migration in a novel stem cell-based test battery” (Archives of Toxicology, 2014).

On the set-up of data set [1]: method as in US EPA [2006]. To be noted: ref US EPA [2006]; cited from earlier work.
Data set [2] concerns migration of hESC-derived neural crest cells (NCC). The data set is described as follows: MINC assay (migration inhibition of neural crest cells, UKN2). To be noted: 48 h, in a non-cytotoxic concentration range.
Details of data set [3]: method as in US EPA [2006]. As to conditions: ref US EPA [2006]; cited from earlier work. This is another data set of the same source.
Data set [4] concerns Xenopus laevis embryos. Also noted: method as in Di Renzo et al. (2011). As to conditions: treated during early neurulation; craniofacial defects, bent forebrain, abnormal hindbrain segmentation; ref Di Renzo et al. (2011); cited from earlier work.
Data set [5] concerns HEK293 cells. As to conditions: human.
In data set [6] the test system is hESC-derived neural crest cells (NCC). To be noted: human.
Data set [7] deals with mESC-derived neural stem cells (mESCn). As to conditions: mouse.
The test system of data set [8] is rats. As to conditions: cited from earlier work.

`CC(C)(C)C(=O)C(Oc1ccc(Cl)cc1)n1cncn1` (stereo not drawn) [Triadimefon]: the “Octanol:water partition (Kow)” value in data set [1] is given as 912. Further, the “Effect on NCC migration in concentration-response study” value in data set [2] is listed as “concentration-dependent effect”. For the same compound, in data set [3], the “Blood:plasma concentration ratio” value is 0.84 and the “Free (unbound) fraction” value is on record as 0.11. Besides, the Concentration inducing abnormalities in data set [4] was 500 µM. In addition, the “Highest non-cytotoxic conc. in HEK293” value in data set [5] worked out at 50.0 µM. Also, the “Concentration for hit finding in NCC (highest non-cytotoxic concentration in the UKN2 test system)” value in data set [6] stood at 50 µM. In data set [7], the “Highest non-cytotoxic conc. in mESCn” value was above 50.0 µM. The “Dose increasing testosterone levels and related effects in male offspring” value in data set [8] (Wistar rats, perinatal exposure, ref Goetz et al. (2007)) is 47 mg/kg/day. In addition, the “Dose causing the same neurotoxic symptoms” value in data set [8] (chronic dietary exposure, male Wistar rats, ref US EPA (2006)) is 54.6 mg/kg/day. Moreover, the “Doses at which a range of toxic effects is observed” value in data set [8] (effects on male fertility and CNS toxicity, ref Crowell et al. 2011) is given as “around 50 mg/kg/day”. Further, the “Dose causing transient CNS toxicity (hyperactivity, stereotyped behavior)” value in data set [8] (single dose, oral gavage, adult male Long-Evans rats, ref Crofton et al. (2011)) is 50 mg/kg.
